Measured values: patent US20260209263A1, “UNNATURAL SUGAR, AND SYNTHESIS METHOD THEREFOR AND USE THEREOF” (HEFEI LINXCELL BIOTECHNOLOGIES CO., LTD, priority 2022, published 2026)

Assays:
[1] = system: MCF7-AGX2F383G-T2A-GFP cells; assay: Metabolic glycan labeling in MCF-7 cells overexpressing mutant enzyme AGX2F383G; assay type: cell-based
Source text: (§1) The above data well illustrate that 1,6-bis-acylated azidosugars can be metabolically labeled at much lower concentrations than unprotected azidosugars.

[2] = system: MCF-7 (MCF7-T2A-GFP) cells; assay: Metabolic glycan labeling in MCF-7 cells expressing GFP; assay type: cell-based
Source text: as §1

[3] = system: B6D2F1/J mice; assay: Metabolic labeling in vivo in mice, in-gel fluorescence of organ homogenates; settings: intraperitoneal, 500 mg/kg every day for 3 or 7 consecutive days; heart, lung, spleen
Protocol: In the in vivo mouse experiment, B6D2F1/J mice were intraperitoneally injected with 1,6-Pr2GalNAz or 1,6-Pr2ManNAz (both at a concentration of 500 mg/kg) every day for 3 or 7 consecutive days. The mice were euthanized on the 4th or 8th day, and different organs were selected for homogenization. The azide-modified glycoproteins were click-labeled and separated by SDS-PAGE.

[4] = system: HeLa cells; assay: Metabolic glycan labeling in living HeLa cells, Cy5 in-gel fluorescence; assay type: cell-based; settings: for labeling efficiency compared with GalNAz or ManNAz: 200 μM of 1,6-bis-acylated sugar vs 2 mM of sugar without protecting groups; for labeling efficiency compared with 1,6-Pr2GalNAz or 1,6-Pr2ManNAz: 200 μM
Protocol: In order to verify the metabolic labeling effect of the above-mentioned 1,6-bis-acylated unnatural sugars in living cells, HeLa cells were metabolically labeled with the above-mentioned different compounds. The specific steps are as follows:
200 μM of 1,6-bis-acylated unnatural sugar and 2 mM of sugar without protecting groups were added to a culture medium of HeLa cells for culture, and then bioorthogonal reaction was carried out with Cy5 fluorescently labeled substances, and in-gel fluorescence detection was performed on the differently treated HeLa cells. The detection results are shown in FIGS. 2A-2C (CBB in FIGS. 3A-3D represents Coomassie Brilliant Blue staining to show the loading amount control).

| Compound | in vivo metabolic labeling of glycoproteins from organs [3] | labeling efficiency compared with GalNAz or ManNAz [4] | labeling efficiency compared with 1,6-Pr2GalNAz or 1,6-Pr2ManNAz [4] | further results |
| --- | --- | --- | --- | --- |
| [N-]=[N+]=NCC(=O)N[C@H]1C(O)O[C@H](CO)[C@@H](O)[C@@H]1O (some centres unmarked) [GlcNAz] | – | – | – | metabolic labeling [1]: produced obvious labeling; metabolic labeling [2]: neither GlcNAz nor 1,6-bis-acylated GlcNAz treatment resulted in obvious labeling |
| CCC(=O)OC[C@H]1OC(OC(=O)CC)[C@H](NC(=O)CN=[N+]=[N-])[C@@H](O)[C@H]1O (some centres unmarked) [1,6-Pr2GalNAz] | glycoproteins from the heart, lung, and spleen could be well labeled | close to or slightly stronger than 2 mM of sugar without protecting groups | – | – |
| CC(=O)OCC1OC(OC(C)=O)C(NC(=O)CN=[N+]=[N-])C(O)C1O (centres unmarked) [1,6-Ac2GalNAz] | – | – | much lower | – |
| CCCC(=O)OCC1OC(OC(=O)CCC)C(NC(=O)CN=[N+]=[N-])C(O)C1O (centres unmarked) [1,6-Bu2GalNAz] | – | – | comparable | – |
| CCC(=O)OCC1OC(OC(=O)CC)C(NC(=O)CN=[N+]=[N-])C(O)C1O (centres unmarked) [1,6-Pr2ManNAz] | glycoproteins from the heart, lung, and spleen could be well labeled | close to or slightly stronger than 2 mM of sugar without protecting groups | – | – |
